According to patent US20260375265A1, “COMPOSITION FOR ALLEVIATING SKIN PIGMENTATION” (LG H & H CO., LTD., priority 2023, published 2026):
Counter-ions that a name gives are not always drawn. Like-named read-outs stand apart in the source and are kept apart here.

What was measured:
[1] = test system: mouse melanoma cells and human keratinocytes; assay: Inhibition of melanin production increased by a-MSH (dark skin tone); format: cell-based; conditions: Keratinocyte, 48 h, a-MSH 10 nM, two days
Description: In detail, mouse melanoma cells and human keratinocytes were seeded at […] cells/well in 6-well plates and cultured in a 37 °C/5% CO2 incubator for one day, followed by treatment with 10 nM of a-MSH. Each of media comprising appropriate concentrations and combinations of substances was added and cultured again in a 37 °C/5% CO2 incubator for two days to determine whether the substances inhibited the melanin production increased by a-MSH. Cells attached to the plates were collected in PBS and centrifuged to obtain cell pellets. The cell pellets were visually inspected and photographed. The cell pellets were dissolved in a 1 N NaOH (sodium hydroxide) solution comprising 10% dimethyl sulfoxide (DMSO) at 80 °C for 10 minutes, and placed in a 96-well plate, and absorbance at 405 nm was measured using an Epoch (Biotek) instrument. Melanin was quantified using the measured absorbance and normalized to the sample protein concentration to determine melanin concentration. The inhibition rate of melanin production of the sample was calculated as a ratio of the melanin concentration of the sample treatment group with respect to the melanin concentration increased by a-MSH treatment.
E1=(X+Y)−(XY+XZ+YZ/100)+XYZ/10000 Colby equation
E2=X+Y−(XY/100) Colby equation

OCA2 = assay: qPCR of OCA2 mRNA expression in a-MSH-treated melanocytes (B16F10); format: cell-based, mouse; conditions: a-MSH 10 nM plus substance, 1 day, appropriate concentration; FIG. 2
Description: (§1) Screening was performed for substances that influence the expression of genes associated with dark skin tone among various substances having skin-improving efficacy. Changes in the expression of genes associated with dark skin tone were examined in cells where melanin synthesis was increased by a-MSH, and substances that restored the expression to the level before a-MSH treatment were selected.
(§2) Mouse melanoma cells (B16F10; CRL-6475) were purchased from ATCC for use. The purchased cells were cultured in a 37 °C/5% CO2 incubator using a medium prepared by supplementing Dulbecco's Modified Eagle Medium (DMEM-GIBCO) with 10% fetal bovine serum (FBS) and 1% penicillin/streptomycin.
(§3) To analyze the efficacy on changes in the mRNA expression of genes associated with dark skin tone, RT-qPCR experiment was conducted. Cells were cultured in a 37 °C/5% CO2 incubator for one day. To assess the change of KITLG expression by UVB, the medium of human keratinocytes (HaCaT) was replaced with PBS, and 30 mJ/cm^2 of UVB (312 nm) was irradiated using an RMX 3W (Vilber Lourmat) instrument. The medium was replaced with a fresh medium and cultured for one day. To assess the change in KITLG expression by treatment with substances, the cells were treated with appropriate concentrations of substances along with a fresh medium and cultured for one day. In addition, to assess the OCA2, BNC2, and RAB32 expression, melanocytes were treated with a-MSH (10 nM) and appropriate concentrations of substances in a fresh medium and cultured for 1 day. Thereafter, total RNA was obtained using AccuPrep Universal RNA Extraction Kit (Bioneer, K-3140), and cDNA was synthesized using AccuPower® RocketScript™ Cycle (Bioneer, K-2202). The expression level of each gene was analyzed by performing qPCR using synthesized cDNA and taqman probe (assay ID: OCA2-Mm00498969_m1, BNC2-Mm00556284_m1, RAB32-Mm00458960_m1, KITLG-Hs00241497_m1).

RAB32 = assay: qPCR of RAB32 mRNA expression in a-MSH-treated melanocytes (B16F10); format: cell-based, mouse; conditions: a-MSH 10 nM plus substance, 1 day, appropriate concentration; FIG. 2
Description: as §1, §2, §3

PPARGC1B [2] = assay: qPCR of PPARGC1B mRNA expression in UVB-irradiated mouse melanoma cells; format: cell-based; conditions: B16F10, UVB 30 mJ/cm^2 (312 nm), substance one day, appropriate concentration; FIG. 1; UVB alone decreased
Description: (§4) Screening was performed for substances that influence the expression of genes associated with scattered dark spots on skin among various substances having skin-improving efficacy. Changes in the expression of genes associated with scattered dark spots on skin were examined in cells where melanin synthesis was increased by UVB exposure, and substances that restored the expression to the level before UVB exposure were selected.
as §2
(§5) To analyze the efficacy on changes in the mRNA expression of genes associated with scattered dark spots on skin, mouse melanoma cells were seeded at 2*10^5 cells/well in 6-well plates and cultured in a 37 °C/5% CO2 incubator for one day. After replacing the medium with PBS, 30 mJ/cm^2 of UVB (312 nm) was irradiated using an RMX 3W (Vilber Lourmat) instrument. Substances were added to the medium at appropriate concentrations and cultured for one day under the same conditions. Thereafter, total RNA was obtained using AccuPrep Universal RNA Extraction Kit (Bioneer, K-3140), and cDNA was synthesized using AccuPower® RocketScript Cycle (Bioneer, K-2202). The expression level of each gene was analyzed by performing qPCR using synthesized cDNA and taqman probe (assay ID: AKAP1-Mm00501539_m1, RAB11FIP2-Mm01261268_m1, PPARGC1B-Mm00504730_m1).

AKAP1 = assay: qPCR of AKAP1 mRNA expression in UVB-irradiated mouse melanoma cells; format: cell-based; conditions: B16F10, UVB 30 mJ/cm^2 (312 nm), substance one day, appropriate concentration; FIG. 1; UVB alone increased
Description: as §4, §2
as §5, with “Thereafter, total RNA was obtained using AccuPrep Universal RNA Extraction Kit (Bioneer, K-3140), and cDNA was synthesized using AccuPower® RocketScript Cycle (Bioneer, K-2202).” left out

BNC2 = assay: qPCR of BNC2 mRNA expression in a-MSH-treated melanocytes (B16F10); format: cell-based, mouse; conditions: a-MSH 10 nM plus substance, 1 day, appropriate concentration; FIG. 2
Description: as §1, §2, §3

TP63 = assay: qPCR of TP63 mRNA expression in UVB-irradiated HaCaT cells; format: cell-based, human; conditions: UVB 10 mJ/cm^2, appropriate concentration, FIG. 3, UVB alone increased
Description: (§6) Screening was performed for substances that influence the expression of genes associated with spot pigmentation among various substances having the skin-improving efficacy. Changes in the expression of genes associated with spot pigmentation were examined in cells where melanin synthesis was increased by a-MSH, and substances that restored the expression to the level before a-MSH treatment were selected.
as §5, with “skin spot pigmentation,” for “scattered dark spots on skin,”, “[…]” for “2*10^5”, “a fresh medium, 10 nM α-MSH” for “PBS, 30 mJ/cm^2 of UVB (312 nm)”, “treated, and substances” for “irradiated using an RMX 3W (Vilber Lourmat) instrument. Substances”, “RocketScript™” for “RocketScript”, “ASCL2-Mm01268891_m1, PPARGC1B-Mm00504730_m1, TP63-Hs00978349_m1).” for “AKAP1-Mm00501539_m1, RAB11FIP2-Mm01261268_m1, PPARGC1B-Mm00504730_m1).”
TP63 expression was increased by 10 mJ/cm^2 of UVB in human keratinocytes, HaCaT. […]

PPARGC1B [3] = assay: qPCR of PPARGC1B mRNA expression in a-MSH-treated B16F10 cells; format: cell-based, mouse; conditions: B16F10, 10 nM a-MSH plus substance, one day, appropriate concentration; FIG. 3
Description: as §6, §2
as §5, with “skin spot pigmentation,” for “scattered dark spots on skin,”, “[…]” for “2*10^5”, “a fresh medium, 10 nM α-MSH” for “PBS, 30 mJ/cm^2 of UVB (312 nm)”, “treated, and substances” for “irradiated using an RMX 3W (Vilber Lourmat) instrument. Substances”, “RocketScript™” for “RocketScript”, “ASCL2-Mm01268891_m1, PPARGC1B-Mm00504730_m1, TP63-Hs00978349_m1).” for “AKAP1-Mm00501539_m1, RAB11FIP2-Mm01261268_m1, PPARGC1B-Mm00504730_m1).”

[4] = test system: protein carbonylation of keratinocytes; assay: Protein carbonylation inhibition in UVA-irradiated human keratinocytes (HaCaT); format: cell-based; conditions: relative to UVA-only group, significant
Description: Previous studies have shown that skin dullness and yellowness are promoted by protein carbonylation of keratinocytes. Therefore, through a protein carbonylation assay, it was examined whether or not customized substances for dark skin tone may also improve skin dullness and yellowness.
Human keratinocytes (HaCaT) were seeded at 1×10^4 in black clear-bottom 96-well plates, and after 24 hours, treated with customized substances at appropriate concentrations. After another 24 hours, cells were irradiated with […] of UVA, washed with PBS, and then incubated with fluolescein-5-thiosemicabarzide in MES buffer for 1 hour at room temperature. After another washing with PBS, fluorescence was measured using a plate reader at an excitation of 492 nm and an emission of 562 nm. Furthermore, based on the UVA-only treatment group, the reduction in protein carbonylation by other effective substances was measured.

RAB11FIP2 = assay: qPCR of RAB11FIP2 mRNA expression in UVB-irradiated mouse melanoma cells; format: cell-based; conditions: B16F10, UVB 30 mJ/cm^2 (312 nm), substance one day, appropriate concentration; FIG. 1; UVB alone decreased
Description: as §4, §2
as §5, with “Thereafter, total RNA was obtained using AccuPrep Universal RNA Extraction Kit (Bioneer, K-3140), and cDNA was synthesized using AccuPower® RocketScript Cycle (Bioneer, K-2202).” left out

O=c1c(O)c(-c2ccc(O)c(O)c2)oc2cc(O)cc(O)c12 [quercetin]
inhibition at 20 ppm ([1]; 20 ppm quercetin, FIG. 6, read-out: reduction of melanin production): ~33.9% | change of OCA2 expression (OCA2): decreasing | change of RAB32 expression (RAB32): decreasing

O=C(O)CO [glycolic acid]
change of PPARGC1B expression (PPARGC1B [2]): increased

N[C@@H](CS)C(=O)O [cysteine]
change of AKAP1 expression (AKAP1): decreasing

O=c1c(-c2ccc(O)cc2)coc2cc(O)cc(O)c12 [genistein]
change of BNC2 expression (BNC2): decreasing | change of OCA2 expression (OCA2): decreasing | change of RAB32 expression (RAB32): decreasing

COc1cc(/C=C/C(=O)O)ccc1O [ferulic acid, 4-hydroxy-3-methoxycinnamic acid]
change of BNC2 expression (BNC2): decreasing | inhibition at 10 ppm ([1]; 10 ppm, FIG. 5, read-out: reduction of melanin production (X)): ~5.04% | change of OCA2 expression (OCA2): decreasing | change of RAB32 expression (RAB32): decreasing

C[C@H]1[C@H](C)CC[C@]2(C(=O)O[C@@H]3O[C@H](CO[C@@H]4O[C@H](CO)[C@@H](O[C@@H]5O[C@@H](C)[C@H](O)[C@@H](O)[C@H]5O)[C@H](O)[C@H]4O)[C@@H](O)[C@H](O)[C@H]3O)CC[C@]3(C)C(=CC[C@@H]4[C@@]5(C)C[C@@H](O)[C@H](O)[C@@](C)(CO)[C@@H]5CC[C@]43C)[C@H]12 [asiaticoside]
change of TP63 expression (TP63): decreased

CCOC1=C(O)C(=O)O[C@@H]1[C@@H](O)CO [3-O-ethyl ascorbic acid]
change of PPARGC1B expression (PPARGC1B [3]): increased

C=C[C@@](C)(/C=C/c1ccc(O)cc1)CCC=C(C)C [bakuchiol]
change of BNC2 expression (BNC2): decreasing | inhibition at 5 ppm ([1]; 5 ppm, FIG. 5, read-out: reduction of melanin production (Y, Z)): ~2.07%

OC[C@H]1O[C@@H](Oc2cc(O)cc(/C=C/c3ccc(O)cc3)c2)[C@H](O)[C@@H](O)[C@@H]1O [polydatin, 3,4′,5-trihydroxystilbene-3-mono-D glucoside]
change of BNC2 expression (BNC2): decreasing | inhibition at 10 ppm ([1]; 10 ppm polydatin, FIG. 6, read-out: reduction of melanin production): ~23.8% | change of OCA2 expression (OCA2): decreasing | change of RAB32 expression (RAB32): decreasing

CC(=O)C(=O)[O-].[Na+] [sodium pyruvate]
change of TP63 expression (TP63): decreased

NCCS [cysteamine HCl]
change of AKAP1 expression (AKAP1): decreasing

O=C1O[C@H]([C@@H](O)CO)C(O)=C1O[C@H]1O[C@H](CO)[C@@H](O)[C@H](O)[C@H]1O [ascorbyl glucoside]
change of PPARGC1B expression (PPARGC1B [3]): increased

CC(C)CCCCCCCCCCCCCCC(=O)O [isostearic acid]
inhibition at 50 ppm ([4]; Homo sapiens, light or radiation study, 50 ppm, FIG. 9, read-out: reduction in protein carbonylation): 31% | change of OCA2 expression (OCA2): decreasing

O=C1O[C@H](CO)[C@@H](O)[C@H](O)[C@H]1O [gluconolactone, glucono-delta-lactone]
change of PPARGC1B expression (PPARGC1B [2]): increased

gamma oryzanol
reduction in protein carbonylation ([4]; 2.5 ppm, FIG. 9): 39% | change of OCA2 expression (OCA2): decreasing | change of RAB32 expression (RAB32): decreasing

CC(C)=CCC[C@](C)(O)[C@@H]1CC=C(C)CC1 [bisabolol, 6-methyl-2-(4-methylcyclohex-3-en-1-yl)hept-5-en-2-ol]
change of RAB11FIP2 expression (RAB11FIP2): increasing

NC[C@H]1CC[C@H](C(=O)O)CC1 [tranexamic acid, trans-4-(aminomethyl)cyclohexanecarboxylic acid, reference compound]
change of OCA2 expression (OCA2): decreasing
